Results from publication PMC11005723, “Development of Complementary Photo‐arginine/lysine to Promote Discovery of Arg/Lys hPTMs Interactomes” (Advanced Science, 2024).
Where two headings read alike, the source gives them in different places. Non-standard residues stand in square brackets, D forms with d. No end group written: not given here. *: point of attachment. Biotin = O=C1N[C@H]2[C@H](CS[C@H]2CCCCC(=O)*)N1; R(dz) = photo-arginine

System: HEK293T nuclear lysates
Test: SILAC‐based pull‐down proteomics H4K5acK8ac/H4K5 (probes 8/5)
Format: binding, human

Substance: probe 8: H4K5acK8ac peptide probe with photo‐arginine R(dz) and K(biotin) (SG[R(dz)]GK(Ac)GGK(Ac)GLGKGGK(Biotin))
- A6 log2 (H4K5ac8ac/H4K5): 0.04066
- B6 log2 (H4K5ac8ac/H4K5): 0.03161
- proteins enriched (SILAC proteomics H4K5acK8ac/H4K5) (365 nm UV 30 min, streptavidin enrichment, n = 2): YEATS4 was enriched
- A6 log2 (H4K5ac8ac/H4K5) (protein ACO2 (Q99798), replicate A6): 0.4428
- B6 log2 (H4K5ac8ac/H4K5) (protein ACO2 (Q99798), replicate B6): 0.07379
- A6 log2 (H4K5ac8ac/H4K5) (protein ACOT7 (O00154), replicate A6): 0.4709
- B6 log2 (H4K5ac8ac/H4K5) (protein ACOT7 (O00154), replicate B6): -0.02566
- A6 log2 (H4K5ac8ac/H4K5) (protein AGPS (O00116), replicate A6): -0.04144
- B6 log2 (H4K5ac8ac/H4K5) (protein AGPS (O00116), replicate B6): 0.004198
- A6 log2 (H4K5ac8ac/H4K5) (protein ALDH18A1 (P54886), replicate A6): 0.1932
- B6 log2 (H4K5ac8ac/H4K5) (protein ALDH18A1 (P54886), replicate B6): 0.05067
- A6 log2 (H4K5ac8ac/H4K5) (protein BUB3 (J3QT28), replicate A6): 0.07833
- B6 log2 (H4K5ac8ac/H4K5) (protein BUB3 (J3QT28), replicate B6): 0.05185
- A6 log2 (H4K5ac8ac/H4K5) (protein C11orf84 (Q9BUA3), replicate A6): -0.4738
- B6 log2 (H4K5ac8ac/H4K5) (protein C11orf84 (Q9BUA3), replicate B6): -0.01921
- A6 log2 (H4K5ac8ac/H4K5) (protein CCAR1 (Q8IX12), replicate A6): -0.2516
- B6 log2 (H4K5ac8ac/H4K5) (protein CCAR1 (Q8IX12), replicate B6): -0.018
- A6 log2 (H4K5ac8ac/H4K5) (protein CCT2 (P78371), replicate A6): 0.3921
- B6 log2 (H4K5ac8ac/H4K5) (protein CCT2 (P78371), replicate B6): 0.08005
- A6 log2 (H4K5ac8ac/H4K5) (protein CCT3 (B4DUR8), replicate A6): 0.2904
- B6 log2 (H4K5ac8ac/H4K5) (protein CCT3 (B4DUR8), replicate B6): 0.07923
- A6 log2 (H4K5ac8ac/H4K5) (protein CHAF1A (Q13111), replicate A6): -0.1099
- B6 log2 (H4K5ac8ac/H4K5) (protein CHAF1A (Q13111), replicate B6): 0.08018
- A6 log2 (H4K5ac8ac/H4K5) (protein CHD1L (A0A494C1F7), replicate A6): 0.1451
- B6 log2 (H4K5ac8ac/H4K5) (protein CHD1L (A0A494C1F7), replicate B6): 0.0657
- A6 log2 (H4K5ac8ac/H4K5) (protein CORO1B (Q9BR76), replicate A6): 0.2889
- B6 log2 (H4K5ac8ac/H4K5) (protein CORO1B (Q9BR76), replicate B6): 0.06919
- A6 log2 (H4K5ac8ac/H4K5) (protein CPOX (P36551), replicate A6): 0.124
- B6 log2 (H4K5ac8ac/H4K5) (protein CPOX (P36551), replicate B6): 0.04785
- A6 log2 (H4K5ac8ac/H4K5) (protein DNAJA2 (O60884), replicate A6): 0.3475
- B6 log2 (H4K5ac8ac/H4K5) (protein DNAJA2 (O60884), replicate B6): -0.007896
- A6 log2 (H4K5ac8ac/H4K5) (protein DYNC1LI1 (Q9Y6G9), replicate A6): 0.04173
- B6 log2 (H4K5ac8ac/H4K5) (protein DYNC1LI1 (Q9Y6G9), replicate B6): -0.03653
- A6 log2 (H4K5ac8ac/H4K5) (protein DYNC1LI2 (O43237), replicate A6): -0.06254
- B6 log2 (H4K5ac8ac/H4K5) (protein DYNC1LI2 (O43237), replicate B6): -0.0172
- A6 log2 (H4K5ac8ac/H4K5) (protein EEF1A2 (Q05639), replicate A6): 0.1545
- B6 log2 (H4K5ac8ac/H4K5) (protein EEF1A2 (Q05639), replicate B6): 0.03088
- A6 log2 (H4K5ac8ac/H4K5) (protein EIF3G (O75821), replicate A6): -0.1739
- B6 log2 (H4K5ac8ac/H4K5) (protein EIF3G (O75821), replicate B6): 0.07863
- A6 log2 (H4K5ac8ac/H4K5) (protein EML4 (Q9HC35), replicate A6): -0.3051
- B6 log2 (H4K5ac8ac/H4K5) (protein EML4 (Q9HC35), replicate B6): 0.01001
- A6 log2 (H4K5ac8ac/H4K5) (protein EXOSC10 (Q01780), replicate A6): 0.04791
- B6 log2 (H4K5ac8ac/H4K5) (protein EXOSC10 (Q01780), replicate B6): -0.03432
- A6 log2 (H4K5ac8ac/H4K5) (protein FEN1 (P39748), replicate A6): 0.2678
- B6 log2 (H4K5ac8ac/H4K5) (protein FEN1 (P39748), replicate B6): 0.04436
- A6 log2 (H4K5ac8ac/H4K5) (protein FKBP4 (Q02790), replicate A6): -0.547
- B6 log2 (H4K5ac8ac/H4K5) (protein FKBP4 (Q02790), replicate B6): -0.03149
- A6 log2 (H4K5ac8ac/H4K5) (protein FTO (A0A1B0GTY1), replicate A6): 0.04491
- B6 log2 (H4K5ac8ac/H4K5) (protein FTO (A0A1B0GTY1), replicate B6): 0.03394
- A6 log2 (H4K5ac8ac/H4K5) (protein FUBP1 (Q96AE4), replicate A6): -0.499
- B6 log2 (H4K5ac8ac/H4K5) (protein FUBP1 (Q96AE4), replicate B6): 0.06296
- A6 log2 (H4K5ac8ac/H4K5) (protein GATAD2B (A0A0U1RRM1), replicate A6): 0.09181
- B6 log2 (H4K5ac8ac/H4K5) (protein GATAD2B (A0A0U1RRM1), replicate B6): -0.04991
- A6 log2 (H4K5ac8ac/H4K5) (protein GMPS (P49915), replicate A6): 0.3016
- B6 log2 (H4K5ac8ac/H4K5) (protein GMPS (P49915), replicate B6): -0.02008
- A6 log2 (H4K5ac8ac/H4K5) (protein GPKOW (Q92917), replicate A6): -0.007755
- B6 log2 (H4K5ac8ac/H4K5) (protein GPKOW (Q92917), replicate B6): 0.07952
- A6 log2 (H4K5ac8ac/H4K5) (protein GTF2I (P78347), replicate A6): 0.3176
- B6 log2 (H4K5ac8ac/H4K5) (protein GTF2I (P78347), replicate B6): -0.03285
- A6 log2 (H4K5ac8ac/H4K5) (protein HADHA (P40939), replicate A6): 0.03109
- B6 log2 (H4K5ac8ac/H4K5) (protein HADHA (P40939), replicate B6): 0.08176
- A6 log2 (H4K5ac8ac/H4K5) (protein HNRNPA2B1 (P22626), replicate A6): -0.08912
- B6 log2 (H4K5ac8ac/H4K5) (protein HNRNPA2B1 (P22626), replicate B6): 0.03979
- A6 log2 (H4K5ac8ac/H4K5) (protein HNRNPAB (D6R9P3), replicate A6): -0.001487
- B6 log2 (H4K5ac8ac/H4K5) (protein HNRNPAB (D6R9P3), replicate B6): 0.001897
- A6 log2 (H4K5ac8ac/H4K5) (protein HNRNPD (D6RAF8), replicate A6): -0.05205
- B6 log2 (H4K5ac8ac/H4K5) (protein HNRNPD (D6RAF8), replicate B6): 0.06546
- A6 log2 (H4K5ac8ac/H4K5) (protein HNRNPM (A0A087X0X3), replicate A6): 0.04259
- B6 log2 (H4K5ac8ac/H4K5) (protein HNRNPM (A0A087X0X3), replicate B6): 0.03533
- A6 log2 (H4K5ac8ac/H4K5) (protein HNRNPUL1 (A0A0A0MRA5), replicate A6): 0.04263
- B6 log2 (H4K5ac8ac/H4K5) (protein HNRNPUL1 (A0A0A0MRA5), replicate B6): 0.07976
- A6 log2 (H4K5ac8ac/H4K5) (protein HSP90AB1 (P08238), replicate A6): 0.1705
- B6 log2 (H4K5ac8ac/H4K5) (protein HSP90AB1 (P08238), replicate B6): -0.003539
- A6 log2 (H4K5ac8ac/H4K5) (protein ILF3 (Q12906), replicate A6): -0.01185
- B6 log2 (H4K5ac8ac/H4K5) (protein ILF3 (Q12906), replicate B6): 0.0307
- A6 log2 (H4K5ac8ac/H4K5) (protein IRS4 (O14654), replicate A6): 0.9009
- B6 log2 (H4K5ac8ac/H4K5) (protein IRS4 (O14654), replicate B6): 0.04996
- A6 log2 (H4K5ac8ac/H4K5) (protein KHDRBS1 (Q07666), replicate A6): -0.03568
- B6 log2 (H4K5ac8ac/H4K5) (protein KHDRBS1 (Q07666), replicate B6): 0.03173
- A6 log2 (H4K5ac8ac/H4K5) (protein KIF23 (A0A2U3TZL8), replicate A6): -0.125
- B6 log2 (H4K5ac8ac/H4K5) (protein KIF23 (A0A2U3TZL8), replicate B6): 0
- A6 log2 (H4K5ac8ac/H4K5) (protein LARS (Q9P2J5), replicate A6): 0.1335
- B6 log2 (H4K5ac8ac/H4K5) (protein LARS (Q9P2J5), replicate B6): 0.07151
- A6 log2 (H4K5ac8ac/H4K5) (protein LEMD3 (Q9Y2U8), replicate A6): 0.3015
- B6 log2 (H4K5ac8ac/H4K5) (protein LEMD3 (Q9Y2U8), replicate B6): -0.02986
- A6 log2 (H4K5ac8ac/H4K5) (protein MAZ (I3L2Z5), replicate A6): 0.4619
- B6 log2 (H4K5ac8ac/H4K5) (protein MAZ (I3L2Z5), replicate B6): 0.02009
- A6 log2 (H4K5ac8ac/H4K5) (protein MCM2 (P49736), replicate A6): -0.3105
- B6 log2 (H4K5ac8ac/H4K5) (protein MCM2 (P49736), replicate B6): 0.01892
- A6 log2 (H4K5ac8ac/H4K5) (protein MCM4 (E5RG31), replicate A6): -0.08812
- B6 log2 (H4K5ac8ac/H4K5) (protein MCM4 (E5RG31), replicate B6): 0.02676
- A6 log2 (H4K5ac8ac/H4K5) (protein MCM5 (P33992), replicate A6): 0.07464
- B6 log2 (H4K5ac8ac/H4K5) (protein MCM5 (P33992), replicate B6): 0.03074
- A6 log2 (H4K5ac8ac/H4K5) (protein MCM6 (Q14566), replicate A6): 0.0904
- B6 log2 (H4K5ac8ac/H4K5) (protein MCM6 (Q14566), replicate B6): 0.06523
- A6 log2 (H4K5ac8ac/H4K5) (protein MLL2 (O14686), replicate A6): 0.2969
- B6 log2 (H4K5ac8ac/H4K5) (protein MLL2 (O14686), replicate B6): 0.009441
- A6 log2 (H4K5ac8ac/H4K5) (protein MRPL37 (Q9BZE1), replicate A6): 0.1893
- B6 log2 (H4K5ac8ac/H4K5) (protein MRPL37 (Q9BZE1), replicate B6): -0.03363
- A6 log2 (H4K5ac8ac/H4K5) (protein MYH9 (P35579), replicate A6): 0.0533
